Data from US6028182A, “Methylphosphonic acid esters, processes for their preparation, and their use” (Hoechst Aktiengesellschaft, priority 1993, dated 2000).
In brackets after ≈: the same amount, converted by molar mass. Where two headings read alike, the source gives them in different places.

Experiments:
[1] = test system: HIV-2; assay: In-vitro anti HIV test, HIV-2, thymidine kinase-deficient T-lymphocyte strain CEM/TK^-; assay type: cell-based, HIV-2 in human T lymphocytes (CEM/TK^-); conditions: Human immunodeficiency virus 2, CEM-TK(-), read-out: Antiviral activity EC50 CEM/TK^- HIV-2
Method: (§1) In-vitro HIV tests were carried out with the dinucleoside α-hydroxymethylarylphosphonates 1-3. As a test system human T lymphocytes (CEM/O) were used. The compounds were additionally tested in a thymidine kinase-deficient T-lymphocyte strain (CEM/TK^-). The CEM/O cells were infected both with HIV-1 and with HIV-2. Before the tests, it was ensured that the compounds to be tested were free of free nucleoside (max. 0.5% HPLC) .

[2] = test system: HIV-2; assay: In-vitro anti HIV test, HIV-2, human T lymphocytes CEM/O; assay type: cell-based, HIV-2 in human T lymphocytes (CEM/O); conditions: Human immunodeficiency virus 2, T-lymphocyte, read-out: Antiviral activity EC50 CEM/O HIV-2
Method: as §1

[3] = test system: HIV-1; assay: In-vitro anti HIV test, HIV-1, human T lymphocytes CEM/O; assay type: cell-based, HIV-1 in human T lymphocytes (CEM/O); conditions: Human immunodeficiency virus 1, T-lymphocyte, read-out: Antiviral activity EC50 CEM/O HIV-1
Method: as §1

[4] = Toxicity (cytotoxic action) in human T lymphocytes; assay type: cell-based; conditions: cem t lymphocytes
Method: as §1

Structure (SMILES) | EC50 [1] | EC50 ([2]; HIV-2, CEM/O cells) | EC50 ([3]; HIV-1, CEM/O cells) | CC50 ([4]; read-out: Toxicity CC50) | EC50 [2] | EC50 [3] | CC50 [4]
Cc1cn([C@H]2CC[C@@H](COP(=O)(OC[C@@H]3CC[C@H](n4cc(C)c(=O)[nH]c4=O)O3)C(O)c3ccc(N(C)C)cc3)O2)c(=O)[nH]c1=O (some centres unmarked) [Compound 1a, bis(5'-O-2',3'-dideoxythymidine) hydroxy(4-dimethylaminophenyl)methylphosphonate] | > 100 µg/mL | 7 ± 4.24 µg/mL (≈ 10.8 µM) | 3.25 ± 1.06 µg/mL (≈ 5.02 µM) | > 100 µg/mL | – | – | –
COc1ccc(C(O)P(=O)(OC[C@@H]2CC[C@H](n3cc(C)c(=O)[nH]c3=O)O2)OC[C@@H]2CC[C@H](n3cc(C)c(=O)[nH]c3=O)O2)cc1 (some centres unmarked) [Compound 1b, bis(5'-O-2',3'-dideoxythymidine) hydroxy(4-methoxyphenyl)methylphosphonate] | > 20 µg/mL | 0.55 ± 0.07 µg/mL (≈ 0.867 µM) | 0.5 µg/mL (≈ 0.788 µM) | > 20 µg/mL | – | – | –
Cc1ccc(C(O)P(=O)(OC[C@@H]2CC[C@H](n3cc(C)c(=O)[nH]c3=O)O2)OC[C@@H]2CC[C@H](n3cc(C)c(=O)[nH]c3=O)O2)cc1 (some centres unmarked) [Compound 1c, bis(5'-O-2',3'-dideoxythymidine) hydroxy(4-methylphenyl)methylphosphonate] | > 100 µg/mL | 10 µg/mL (≈ 16.2 µM) | 3.25 ± 1.06 µg/mL (≈ 5.25 µM) | > 100 µg/mL | – | – | –
Cc1cn([C@H]2CC[C@@H](COP(=O)(OC[C@@H]3CC[C@H](n4cc(C)c(=O)[nH]c4=O)O3)C(O)c3ccccc3)O2)c(=O)[nH]c1=O (some centres unmarked) [Compound 1d, bis(5'-O-2',3'-dideoxythymidine) hydroxy(phenyl)methylphosphonate] | > 100 µg/mL | 13.3 ± 2.9 µg/mL (≈ 22 µM) | 2.93 ± 1.85 µg/mL (≈ 4.85 µM) | > 100 µg/mL | – | – | –
Cc1cn([C@H]2CC[C@@H](COP(=O)(OC[C@@H]3CC[C@H](n4cc(C)c(=O)[nH]c4=O)O3)C(O)c3ccc(Cl)cc3)O2)c(=O)[nH]c1=O (some centres unmarked) [Compound 1e, bis(5'-O-2',3'-dideoxythymidine) hydroxy(4-chlorophenyl)methylphosphonate] | > 100 µg/mL | 4 µg/mL (≈ 6.26 µM) | 4 µg/mL (≈ 6.26 µM) | > 100 µg/mL | – | – | –
Cc1cn([C@H]2CC[C@@H](COP(=O)(OC[C@@H]3CC[C@H](n4cc(C)c(=O)[nH]c4=O)O3)C(O)c3c(Cl)cccc3Cl)O2)c(=O)[nH]c1=O (some centres unmarked) [Compound 1f, bis(5'-O-2',3'-dideoxythymidine) hydroxy(2,6-dichlorophenyl)methylphosphonate] | > 20 µg/mL | – | – | > 20 µg/mL | 2 µg/mL (≈ 2.97 µM) | 1.4 ± 0.85 µg/mL (≈ 2.08 µM) | –
Cc1cn([C@H]2CC[C@@H](COP(=O)(OC[C@@H]3CC[C@H](n4cc(C)c(=O)[nH]c4=O)O3)C(O)c3ccc(C#N)cc3)O2)c(=O)[nH]c1=O (some centres unmarked) [Compound 1g, bis(5'-O-2',3'-dideoxythymidine) hydroxy(4-cyanophenyl)methylphosphonate] | > 100 µg/mL | 7.7 ± 4.6 µg/mL (≈ 12.2 µM) | 3.93 ± 3.1 µg/mL (≈ 6.24 µM) | > 100 µg/mL | – | – | –
Cc1cn([C@H]2CC[C@@H](COP(=O)(OC[C@@H]3CC[C@H](n4cc(C)c(=O)[nH]c4=O)O3)C(O)c3ccc([N+](=O)[O-])cc3)O2)c(=O)[nH]c1=O (some centres unmarked) [Compound 1h, bis(5'-O-2',3'-dideoxythymidine) hydroxy(4-nitrophenyl)methylphosphonate] | > 100 µg/mL | 3 ± 1.41 µg/mL (≈ 4.62 µM) | 2.25 ± 0.35 µg/mL (≈ 3.46 µM) | > 100 µg/mL | – | – | –
Cc1cn([C@H]2CC[C@@H](COP(=O)(OC[C@@H]3CC[C@H](n4cc(C)c(=O)[nH]c4=O)O3)C(O)c3ccc([N+](=O)[O-])cc3[N+](=O)[O-])O2)c(=O)[nH]c1=O (some centres unmarked) [Compound 1j, bis(5'-O-2',3'-dideoxythymidine) hydroxy(2,4-dinitrophenyl)methylphosphonate] | > 100 µg/mL | 3.5 ± 0.71 µg/mL (≈ 5.04 µM) | 2 µg/mL (≈ 2.88 µM) | – | – | – | > 100 µg/mL
COc1ccc(C(O)P(=O)(OC[C@@H]2C=C[C@H](n3cc(C)c(=O)[nH]c3=O)O2)OC[C@@H]2C=C[C@H](n3cc(C)c(=O)[nH]c3=O)O2)cc1 (some centres unmarked) [Compound 2b, bis(5'-O-2',3'-dideoxy-2',3'-didehydrothymidine)hydroxy(4-methoxyphenyl)methylphosphonate] | > 100 µg/mL | 0.12 ± 0.06 µg/mL (≈ 0.19 µM) | 0.1 ± 0.065 µg/mL (≈ 0.159 µM) | > 20 µg/mL | – | – | –
Cc1ccc(C(O)P(=O)(OC[C@@H]2C=C[C@H](n3cc(C)c(=O)[nH]c3=O)O2)OC[C@@H]2C=C[C@H](n3cc(C)c(=O)[nH]c3=O)O2)cc1 (some centres unmarked) [Compound 2c, bis(5'-O-2',3'-dideoxy-2',3'-didehydrothymidine)hydroxy(4-methylphenyl)methylphosphonate] | > 100 µg/mL | 0.33 ± 0.24 µg/mL (≈ 0.537 µM) | 0.12 ± 0.064 µg/mL (≈ 0.195 µM) | > 20 µg/mL | – | – | –
Cc1cn([C@H]2C=C[C@@H](COP(=O)(OC[C@@H]3C=C[C@H](n4cc(C)c(=O)[nH]c4=O)O3)C(O)c3ccccc3)O2)c(=O)[nH]c1=O (some centres unmarked) [Compound 2d, bis(5'-O-2',3'-dideoxy-2',3'-didehydrothymidine)hydroxy(phenyl)methylphosphonate] | > 100 µg/mL | 0.19 ± 0.19 µg/mL (≈ 0.316 µM) | 0.16 µg/mL (≈ 0.266 µM) | > 100 µg/mL | – | – | –
Cc1cn([C@H]2C=C[C@@H](COP(=O)(OC[C@@H]3C=C[C@H](n4cc(C)c(=O)[nH]c4=O)O3)C(O)c3ccc(Cl)cc3)O2)c(=O)[nH]c1=O (some centres unmarked) [Compound 2e, bis(5'-O-2',3'-dideoxy-2',3'-didehydrothymidine)hydroxy(4-chlorophenyl)methylphosphonate] | > 100 µg/mL | 0.12 ± 0.06 µg/mL (≈ 0.189 µM) | 0.1 ± 0.05 µg/mL (≈ 0.157 µM) | > 100 µg/mL | – | – | –
Cc1cn([C@H]2C=C[C@@H](COP(=O)(OC[C@@H]3C=C[C@H](n4cc(C)c(=O)[nH]c4=O)O3)C(O)c3c(Cl)cccc3Cl)O2)c(=O)[nH]c1=O (some centres unmarked) [Compound 2f, bis(5'-O-2',3'-dideoxy-2',3'-didehydrothymidine)hydroxy(2,6-dichlorophenyl)methylphosphonate] | > 20 µg/mL | 0.12 ± 0.06 µg/mL (≈ 0.179 µM) | 0.056 ± 0.034 µg/mL (≈ 0.0837 µM) | > 100 µg/mL | – | – | –
Cc1cn([C@H]2C=C[C@@H](COP(=O)(OC[C@@H]3C=C[C@H](n4cc(C)c(=O)[nH]c4=O)O3)C(O)c3ccc(C#N)cc3)O2)c(=O)[nH]c1=O (some centres unmarked) [Compound 2g, bis(5'-O-2',3'-dideoxy-2',3'-didehydrothymidine)hydroxy(4-cyanophenyl)methylphosphonate] | > 100 µg/mL | 0.33 ± 0.24 µg/mL (≈ 0.528 µM) | 0.091 ± 0.065 µg/mL (≈ 0.145 µM) | > 100 µg/mL | – | – | –
Cc1cn([C@H]2C=C[C@@H](COP(=O)(OC[C@@H]3C=C[C@H](n4cc(C)c(=O)[nH]c4=O)O3)C(O)c3ccc([N+](=O)[O-])cc3)O2)c(=O)[nH]c1=O (some centres unmarked) [Compound 2h, bis(5'-O-2',3'-dideoxy-2',3'-didehydrothymidine)hydroxy(4-nitrophenyl)methylphosphonate] | > 100 µg/mL | 0.12 ± 0.06 µg/mL (≈ 0.186 µM) | 0.066 ± 0.048 µg/mL (≈ 0.102 µM) | > 100 µg/mL | – | – | –
Cc1cn([C@H]2C=C[C@@H](COP(=O)(OC[C@@H]3C=C[C@H](n4cc(C)c(=O)[nH]c4=O)O3)C(O)c3ccc([N+](=O)[O-])cc3[N+](=O)[O-])O2)c(=O)[nH]c1=O (some centres unmarked) [Compound 2j, bis(5'-O-2',3'-dideoxy-2',3'-didehydrothymidine)hydroxy(2,4-dinitrophenyl)methylphosphonate] | > 100 µg/mL | 0.33 ± 0.24 µg/mL (≈ 0.478 µM) | 0.16 µg/mL (≈ 0.232 µM) | – | – | – | > 100 µg/mL
